Measured values as given in patent US20250313533A1, “QUINOLINE CARBOXYLIC ACID ESTER COMPOUND AND PREPARATION METHOD AND USE THEREOF” (priority 2019, published 2025).

Key:
black shank in potatoes = test: Living crops in vivo protective activity, potatoes (root irrigation); conditions: Solanum tuberosum, read-out: efficacy against black shank in potatoes; for pest or weed control at 5 ppm: dosage 5 ppm; for pest or weed control at 10 ppm: dosage 10 ppm
Description: Root irrigation was carried out on the potatoes for tests according to the designed concentration of the agents. The dosage for each plant was 200 mL and was kept consistent (also for the control). The black shank bacteria were inoculated on the second day after the application. The results were investigated according to the disease condition.

cucumber seedlings = test: Safety for plant growth after application; type: in vivo; conditions: dosage 200 ppm
From the text: Taking indoor potted cucumber seedlings as an example, the influence of the compound disclosed herein on growth rate of plant height, chlorophyll content, leaf area, etc. of crops was mainly evaluated.
The results of safety and health-care effect of the compounds of the present disclosure on cucumber seedlings are shown in the following table 1: […]

[1] = tested on: pathogenic bacteria causing bacterial wilt in tobacco; test: whole plant or invertebrate; type: cell-based, ralstonia; conditions: read-out: inhibitory rate
[2] = tested on: pathogenic bacteria causing stem rot in sweet potatoes; test: In vitro bactericidal activity, stem rot in sweet potatoes; type: cell-based, dikia; conditions: read-out: inhibitory rate; for inhibition at 1 ppm: dosage 1 ppm; for inhibition at 5 ppm: dosage 5 ppm
Description: (§1) Under aseptic conditions, equal amounts of NB culture medium were added to test tubes, and fixed amounts of the sample solutions were pipetted into the above test tubes in an ascending order of concentrations, respectively. The mixtures were well mixed and added with equal amounts of a bacterial suspension in log phase.
(§2) Each step of the procedure was repeated 4 times. After mixing, the mixture samples were incubated in the dark in a shaking incubator at 25° C. The OD values were measured when the bacteria were in log phase.

[3] = tested on: stem rot in sweet potatoes; test: whole plant or invertebrate; conditions: read-out: efficacy against stem rot in sweet potatoes
[4] = tested on: pathogenic bacteria causing bacterial angular leaf spot in cucumbers; test: In vitro bactericidal activity, bacterial angular leaf spot in cucumbers; type: cell-based, pseudomonas; conditions: read-out: inhibitory rate; for inhibition at 1 ppm: dosage 1 ppm; for inhibition at 5 ppm: dosage 5 ppm
Description: as §1, §2

[5] = tested on: pathogenic bacteria causing bacterial wilt in cassava; test: organism not typed; type: cell-based; conditions: read-out: inhibitory rate
[6] = tested on: pathogenic bacteria causing black shank in potatoes; test: In vitro bactericidal activity, black shank in potatoes; type: cell-based; conditions: read-out: inhibitory rate; for inhibition at 1 ppm: dosage 1 ppm; for inhibition at 5 ppm: dosage 5 ppm
Description: as §1, §2

[7] = tested on: pathogenic bacteria causing bacterial blight in rice; test: whole plant or invertebrate; type: cell-based, xanthomonas; conditions: read-out: inhibitory rate
[8] = tested on: pathogenic bacteria causing fruit blotch in watermelons; test: In vitro bactericidal activity, fruit blotch in watermelons; type: cell-based, acidovorax; conditions: read-out: inhibitory rate; for inhibition at 1 ppm: dosage 1 ppm; for inhibition at 5 ppm: dosage 5 ppm
Description: as §1, §2

[9] = tested on: pathogenic bacteria causing black rot in Chinese cabbages; test: In vitro bactericidal activity, black rot in Chinese cabbages; type: cell-based, xanthomonas; conditions: Xanthomonas, read-out: inhibitory rate; for inhibition at 1 ppm: dosage 1 ppm; for inhibition at 5 ppm: dosage 5 ppm
Description: as §1, §2

[10] = tested on: pathogenic bacteria causing fire blight in pears; test: In vitro bactericidal activity, fire blight in pears; type: cell-based, erwinia; conditions: Erwinia, read-out: inhibitory rate; for inhibition at 1 ppm: dosage 1 ppm; for inhibition at 5 ppm: dosage 5 ppm
Description: as §1, §2

[11] = tested on: soft rot in Chinese cabbages; test: whole plant or invertebrate; conditions: 48 h, read-out: efficacy against soft rot in Chinese cabbages
[12] = tested on: bacterial wilt in tobacco; test: whole plant or invertebrate; conditions: Nicotiana tabacum, read-out: efficacy against bacterial wilt in tobacco
bacterial blight in rice = test: whole plant or invertebrate; conditions: Oryza sativa, read-out: efficacy against bacterial blight in rice
[13] = tested on: fruit blotch in watermelons; test: whole plant or invertebrate; conditions: read-out: efficacy against fruit blotch in watermelons

With `O=C(OCCOC1CC1)c1cn(C2CC2)c2cc(Cl)c(F)cc2c1=O` [Compound 160] the pest or weed control at 5 ppm (black shank in potatoes) was at least 80%, the pest or weed control at 10 ppm (black shank in potatoes) was at least 90% and the “safety for plant growth (discoloration, necrosis, wilt, malformation)” value (“safety for plant growth” for short) (cucumber seedlings) was “safe for plant growth”. The inhibition at 1 ppm [1] was at least 80%, the inhibition at 5 ppm [1] was at least 90% and the inhibition at 1 ppm [2] was at least 80%. For the same compound, the inhibition at 5 ppm [2] was at least 90%, the pest or weed control at 5 ppm [3] was at least 90% and the pest or weed control at 10 ppm [3] was at least 90%. The inhibition at 1 ppm [4] was at least 80%, the inhibition at 5 ppm [4] was at least 90% and the inhibition at 1 ppm [5] was at least 80%. The inhibition at 5 ppm [5] was at least 90%, the inhibition at 1 ppm [6] was at least 80% and the inhibition at 5 ppm [6] was at least 90%. The inhibition at 1 ppm [7] was at least 80%, the inhibition at 5 ppm [7] was at least 90% and the inhibition at 1 ppm [8] was at least 80%. The inhibition at 5 ppm [8] was at least 90%, the inhibition at 1 ppm [9] was at least 80% and the inhibition at 5 ppm [9] was at least 90%. The inhibition at 1 ppm [10] was at least 80%, the inhibition at 5 ppm [10] was at least 90% and the pest or weed control at 5 ppm [11] was at least 80%. For the same compound, the pest or weed control at 10 ppm [11] was at least 90%, the pest or weed control at 5 ppm [12] was at least 90% and the pest or weed control at 10 ppm [12] was at least 90%. It also gave a pest or weed control at 5 ppm (bacterial blight in rice) of at least 80%, a pest or weed control at 10 ppm (bacterial blight in rice) of at least 90% and a pest or weed control at 5 ppm [13] of at least 90%. It also gave a pest or weed control at 10 ppm [13] of at least 90%.

`O=C(OCCCCO)c1cn(C2CC2)c2cc(Cl)c(F)cc2c1=O` [Compound 177] was tested, and the pest or weed control at 5 ppm (black shank in potatoes) was at least 90%, the pest or weed control at 10 ppm (black shank in potatoes) was at least 90% and the “safety for plant growth” value (cucumber seedlings) was “safe for plant growth”. It also gave an inhibition at 1 ppm [1] of at least 90%, an inhibition at 5 ppm [1] of at least 90% and an inhibition at 1 ppm [2] of at least 90%. The inhibition at 5 ppm [2] was at least 90%, the pest or weed control at 5 ppm [3] was at least 90% and the pest or weed control at 10 ppm [3] was at least 90%. It also gave an inhibition at 1 ppm [4] of at least 90%, an inhibition at 5 ppm [4] of at least 90% and an inhibition at 1 ppm [5] of at least 90%. For the same compound, the inhibition at 5 ppm [5] was at least 90%, the inhibition at 1 ppm [6] was at least 90% and the inhibition at 5 ppm [6] was at least 90%. The inhibition at 1 ppm [7] was at least 80%, the inhibition at 5 ppm [7] was at least 90% and the inhibition at 1 ppm [8] was at least 90%. It also gave an inhibition at 5 ppm [8] of at least 90%, an inhibition at 1 ppm [9] of at least 90% and an inhibition at 5 ppm [9] of at least 90%. For the same compound, the inhibition at 1 ppm [10] was at least 90%, the inhibition at 5 ppm [10] was at least 90% and the pest or weed control at 5 ppm [11] was at least 90%. For the same compound, the pest or weed control at 10 ppm [11] was at least 90%, the pest or weed control at 5 ppm [12] was at least 90% and the pest or weed control at 10 ppm [12] was at least 90%. It also gave a pest or weed control at 5 ppm (bacterial blight in rice) of at least 80%, a pest or weed control at 10 ppm (bacterial blight in rice) of at least 90% and a pest or weed control at 5 ppm [13] of at least 90%. The pest or weed control at 10 ppm [13] was at least 90%.

`O=C(OCCO)c1cn(C2CC2)c2cc(F)ccc2c1=O` [Compound 194] was tested, and the pest or weed control at 5 ppm (black shank in potatoes) was at least 80%, the pest or weed control at 10 ppm (black shank in potatoes) was at least 90% and the “safety for plant growth” value (cucumber seedlings) was “safe for plant growth”. For the same compound, the inhibition at 1 ppm [1] was at least 80%, the inhibition at 5 ppm [1] was at least 90% and the inhibition at 1 ppm [2] was at least 80%. The inhibition at 5 ppm [2] was at least 90%, the pest or weed control at 5 ppm [3] was at least 90% and the pest or weed control at 10 ppm [3] was at least 90%. It also gave an inhibition at 1 ppm [4] of at least 80%, an inhibition at 5 ppm [4] of at least 90% and an inhibition at 1 ppm [5] of at least 80%. For the same compound, the inhibition at 5 ppm [5] was at least 90%, the inhibition at 1 ppm [6] was at least 80% and the inhibition at 5 ppm [6] was at least 90%. The inhibition at 1 ppm [7] was at least 80%, the inhibition at 5 ppm [7] was at least 90% and the inhibition at 1 ppm [8] was at least 80%. For the same compound, the inhibition at 5 ppm [8] was at least 90%, the inhibition at 1 ppm [9] was at least 80% and the inhibition at 5 ppm [9] was at least 90%. For the same compound, the inhibition at 1 ppm [10] was at least 80%, the inhibition at 5 ppm [10] was at least 90% and the pest or weed control at 5 ppm [11] was at least 80%. The pest or weed control at 10 ppm [11] was at least 90%, the pest or weed control at 5 ppm [12] was at least 90% and the pest or weed control at 10 ppm [12] was at least 90%. It also gave a pest or weed control at 5 ppm (bacterial blight in rice) of at least 80%, a pest or weed control at 10 ppm (bacterial blight in rice) of at least 90% and a pest or weed control at 5 ppm [13] of at least 90%. The pest or weed control at 10 ppm [13] was at least 90%.

With `CCOc1cc2c(cc1F)c(=O)c(C(=O)OCCOC(C)C)cn2C1CC1` [Compound 300] the pest or weed control at 5 ppm (black shank in potatoes) was at least 90%, the pest or weed control at 10 ppm (black shank in potatoes) was at least 90% and the “safety for plant growth” value (cucumber seedlings) was “safe for plant growth”. It also gave an inhibition at 1 ppm [1] of at least 90%, an inhibition at 5 ppm [1] of at least 90% and an inhibition at 1 ppm [2] of at least 90%. It also gave an inhibition at 5 ppm [2] of at least 90%, a pest or weed control at 5 ppm [3] of at least 90% and a pest or weed control at 10 ppm [3] of at least 90%. The inhibition at 1 ppm [4] was at least 90%, the inhibition at 5 ppm [4] was at least 90% and the inhibition at 1 ppm [5] was at least 90%. It also gave an inhibition at 5 ppm [5] of at least 90%, an inhibition at 1 ppm [6] of at least 90% and an inhibition at 5 ppm [6] of at least 90%. For the same compound, the inhibition at 1 ppm [7] was at least 90%, the inhibition at 5 ppm [7] was at least 90% and the inhibition at 1 ppm [8] was at least 90%. The inhibition at 5 ppm [8] was at least 90%, the inhibition at 1 ppm [9] was at least 90% and the inhibition at 5 ppm [9] was at least 90%. It also gave an inhibition at 1 ppm [10] of at least 90%, an inhibition at 5 ppm [10] of at least 90% and a pest or weed control at 5 ppm [11] of at least 90%. It also gave a pest or weed control at 10 ppm [11] of at least 90%, a pest or weed control at 5 ppm [12] of at least 90% and a pest or weed control at 10 ppm [12] of at least 90%. The pest or weed control at 5 ppm (bacterial blight in rice) was at least 90%, the pest or weed control at 10 ppm (bacterial blight in rice) was at least 90% and the pest or weed control at 5 ppm [13] was at least 90%. For the same compound, the pest or weed control at 10 ppm [13] was at least 90%.

With `CCOCOC(=O)c1cn(C2CC2)c2cc(OCC)c(F)cc2c1=O` [Compound 312] the pest or weed control at 5 ppm (black shank in potatoes) was at least 90%, the pest or weed control at 10 ppm (black shank in potatoes) was at least 90% and the “safety for plant growth” value (cucumber seedlings) was “safe for plant growth”. The inhibition at 1 ppm [1] was at least 90%, the inhibition at 5 ppm [1] was at least 90% and the inhibition at 1 ppm [2] was at least 90%. The inhibition at 5 ppm [2] was at least 90%, the pest or weed control at 5 ppm [3] was at least 90% and the pest or weed control at 10 ppm [3] was at least 90%. For the same compound, the inhibition at 1 ppm [4] was at least 90%, the inhibition at 5 ppm [4] was at least 90% and the inhibition at 1 ppm [5] was at least 90%. The inhibition at 5 ppm [5] was at least 90%, the inhibition at 1 ppm [6] was at least 90% and the inhibition at 5 ppm [6] was at least 90%. It also gave an inhibition at 1 ppm [7] of at least 80%, an inhibition at 5 ppm [7] of at least 90% and an inhibition at 1 ppm [8] of at least 90%. It also gave an inhibition at 5 ppm [8] of at least 90%, an inhibition at 1 ppm [9] of at least 90% and an inhibition at 5 ppm [9] of at least 90%. The inhibition at 1 ppm [10] was at least 90%, the inhibition at 5 ppm [10] was at least 90% and the pest or weed control at 5 ppm [11] was at least 90%. It also gave a pest or weed control at 10 ppm [11] of at least 90%, a pest or weed control at 5 ppm [12] of at least 90% and a pest or weed control at 10 ppm [12] of at least 90%. For the same compound, the pest or weed control at 5 ppm (bacterial blight in rice) was at least 80%, the pest or weed control at 10 ppm (bacterial blight in rice) was at least 90% and the pest or weed control at 5 ppm [13] was at least 90%. The pest or weed control at 10 ppm [13] was at least 90%.
